Patent publication US4971967A, “Quinolinecarboxylic acid derivatives, antibacterial compositions and use” (Kanebo Ltd, priority 1989, dated 1990)
Converted amounts (≈) assume the structure as drawn. Read-outs that look alike come from different tables or passages of the source.

How the values were obtained:
[1] = tested on: Staphylococcus aureus IID 803; assay: Effect on treatment of general infectious disease, S. aureus IID 803 (Experiment 3); assay type: in vivo, ddY male mice infected with Staphylococcus aureus; conditions: IID803, 168 h, oral, 1 h after i.p. infection, 5.0×10^7 CFU/mouse, survival after one week
Method: Staphylococcus aureus IID 803 (5.0×10^7 CFU/mouse)
(§1) The test microorganisms were subjected to standing culture in Trypto-Soya Agar "Nissui" (made by Nissui Seiyaku K.K., Japan) at 37° C. for 16 to 18 hours. The culture was then diluted with PBS (Dulbecco's phosphate buffered saline) and mixed with an equivalent amount of 10% (w/v) Mucin (BACTO MUCIN BACTERIOLOGICAL, made by Difco Co.) to prepare a microorganism solution. The thus prepared microorganism solution (0.5 ml each) was intraperitoneally inoculated to ddY male mice (5 weeks age, weighing 25-28 g, 5 mice in each group), to infect the animals. One hour after the infection, the compound (A) or (J) of the present invention or the known compound (X) suspended in 1% (w/v) aqueous gum arabic or the known compound (Y) dissolved in sterilized distilled water was orally adiministered to mice.
(§2) The mice were daily observed for one week, and from the survival number of mice after one week, the 50% effective dose (ED50) was calculated by Weil method.

[2] = Acute toxicity (Experiment 5); conditions: mouse, in vivo, po, 2000 mg/kg
Method: (§3) The compound (A) or (J) of the present invention was suspended in 1% (w/v) aqueous gum arabic to prepare a suspension in concentration of 100 mg/ml. The suspension was orally administered to ddY male mice (5 weeks age, weighing 20 to 25 g, 5 mice in each group), which had been fasted for 18 hours, at a rate of 2000 mg/kg body weight of the compound (A) or (J).

[3] = tested on: Morganella morganii IFO 3848; assay: Antibacterial activity (MIC), Morganella morganii IFO 3848; assay type: cell-based; conditions: Morganella morganii, IFO3848, Morganella morganii IFO 3848, Gram -; read-out: Minimum inhibitory concentration (MIC)
In short: (§4)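 Dissolve compound in 0.1 N aqueous sodium hydroxide or sterilized distilled water to 5000 μg/ml; dilute to a 1000 μg/ml standard; measure MIC as prescribed by the Japan Society of Chemotherapy.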

[4] = tested on: Enterobacter aerogenes ATCC 13048; assay: Antibacterial activity (MIC), Enterobacter aerogenes ATCC 13048; assay type: cell-based; conditions: Klebsiella aerogenes, ATCC13048; Enterobacter aerogenes ATCC 13048, Gram -; read-out: Minimum inhibitory concentration (MIC)
In short: as §4

[5] = tested on: Proteus mirabilis IFO 3849; assay: Antibacterial activity (MIC), Proteus mirabilis IFO 3849; assay type: cell-based; conditions: IFO3849; Proteus mirabilis IFO 3849, Gram -; read-out: Minimum inhibitory concentration (MIC)
In short: as §4

[6] = tested on: Citrobacter freundii NIHJ 10018-68; assay: Antibacterial activity (MIC), Citrobacter freundii NIHJ 10018-68; assay type: cell-based; conditions: Citrobacter freundii, NIHJ10018, Citrobacter freundii NIHJ 10018-68, Gram -; read-out: Minimum inhibitory concentration (MIC)
In short: as §4

[7] = tested on: Pseudomonas aeruginosa E-2; assay: Effect on treatment of general infectious disease, P. aeruginosa E-2 (Experiment 3); assay type: in vivo, ddY male mice infected with Pseudomonas aeruginosa; conditions: E2, 168 h, oral, 1 h after i.p. infection, 3.1×10^4 CFU/mouse, survival after one week
Method: Pseudomonas aeruginosa E-2 (3.1×10^4 CFU/mouse)
as §1, §2

[8] = tested on: Serratia marcescens IAM 1184; assay: Antibacterial activity (MIC), Serratia marcescens IAM 1184; assay type: cell-based; conditions: Serratia marcescens, IAM1184, Serratia marcescens IAM 1184, Gram -; read-out: Minimum inhibitory concentration (MIC)
In short: as §4

[9] = tested on: Shigella sonnei EW-33; assay: Antibacterial activity (MIC), Shigella sonnei EW-33; assay type: cell-based; conditions: Shigella sonnei, EW33, Shigella sonnei EW-33, Gram -; read-out: Minimum inhibitory concentration (MIC)
In short: as §4

[10] = tested on: Enterobacter cloacae 963; assay: Antibacterial activity (MIC), Enterobacter cloacae 963; assay type: cell-based; conditions: Enterobacter cloacae, 963, Enterobacter cloacae 963, Gram -; read-out: Minimum inhibitory concentration (MIC)
In short: as §4

[11] = tested on: Streptococcus faecalis IID 682; assay: Antibacterial activity (MIC), Streptococcus faecalis IID 682; assay type: cell-based; conditions: Enterococcus faecalis, IID682, Streptococcus faecalis IID 682, Gram +; read-out: Minimum inhibitory concentration (MIC)
In short: as §4

[12] = Low toxicity (Experiments 5 and 6); assay type: in vivo, ddY male mice; conditions: result in words
Method: as §3
The compound (O) or (P) of the present invention was suspended in sterilized distilled water to prepare a suspension. The suspension was orally adminstered to ddY male mice (5 weeks age, weighing 20 to 25 g, 5 mice in each group), which had been fasted for 18 hours.

[13] = tested on: Pseudomonas aeruginosa E-2; assay: Antibacterial activity (MIC), P. aeruginosa E-2; assay type: cell-based; conditions: E2; Pseudomonas aeruginosa E-2, Gram -; read-out: Minimum inhibitory concentration (MIC)
In short: as §4

[14] = tested on: Proteus vulgaris OX-19; assay: Antibacterial activity (MIC), Proteus vulgaris OX-19; assay type: cell-based; conditions: OX19; Proteus vulgaris OX-19, Gram -; read-out: Minimum inhibitory concentration (MIC)
In short: as §4

[15] = tested on: Staphylococcus aureus IID 803; assay: Antibacterial activity (MIC), S. aureus IID 803; assay type: cell-based
In short: as §4

[16] = tested on: Klebsiella pneumoniae PCI-602; assay: Antibacterial activity (MIC), Klebsiella pneumoniae PCI-602; assay type: cell-based; conditions: PCI602; Klebsiella pneumoniae PCI-602, Gram -; read-out: Minimum inhibitory concentration (MIC)
In short: as §4

[17] = tested on: Staphylococcus aureus FDA 209P JC-1; assay: Antibacterial activity (MIC), S. aureus FDA 209P JC-1; assay type: cell-based; conditions: FDA209P, read-out: Minimum inhibitory concentration (MIC)
In short: as §4

[18] = tested on: Staphylococcus epidermidis IAM-1296; assay: Antibacterial activity (MIC), S. epidermidis IAM-1296; assay type: cell-based; conditions: Staphylococcus epidermidis, IAM1296, Staphylococcus epidermidis IAM-1296, Gram +; read-out: Minimum inhibitory concentration (MIC)
In short: as §4

[19] = tested on: Pseudomonas aeruginosa NCTC 10490; assay: Antibacterial activity (MIC), P. aeruginosa NCTC 10490; assay type: cell-based; conditions: Pseudomonas aeruginosa, NCTC10490, Pseudomonas aeruginosa NCTC 10490, Gram -; read-out: Minimum inhibitory concentration (MIC)
In short: as §4

[20] = tested on: Micrococcus luteus ATCC 9341; assay: Antibacterial activity (MIC), Micrococcus luteus ATCC 9341; assay type: cell-based; conditions: ATCC9341; Micrococcus luteus ATCC 9341, Gram +; read-out: Minimum inhibitory concentration (MIC)
In short: as §4

Row | SMILES | ED50 [1] | death of mice [2] | MIC [3] | MIC [4] | MIC [5] | MIC [6] | ED50 [7] | MIC [8] | MIC [9] | MIC [10] | MIC [11] | toxicity [12] | MIC [13] | MIC [14] | MIC [16] | MIC [18] | MIC [19] | MIC [20] | other results
1 | CN1CCN(c2c(F)cc3c(=O)c(C(=O)O)c4scc5n4c3c2N(C)C5)CC1 [Compound (A), 9,1-(Methylimino)methano-7-fluoro-8-(4-methyl-1-piperazinyl)-5-oxo-5H-thiazolo[3,2-a]quinoline-4-carboxylic acid] | 5.8 mg/kg | no death of mice was observed | 0.05 µg/mL (≈ 0.124 µM) | 0.05 µg/mL (≈ 0.124 µM) | 0.2 µg/mL (≈ 0.497 µM) | 0.2 µg/mL (≈ 0.497 µM) | 10.2 mg/kg | 0.2 µg/mL (≈ 0.497 µM) | 0.025 µg/mL (≈ 0.0621 µM) | 0.05 µg/mL (≈ 0.124 µM) | 0.1 µg/mL (≈ 0.248 µM) | low toxicity | 0.78 µg/mL (≈ 1.94 µM) | 0.0125 µg/mL (≈ 0.0311 µM) | 0.006 µg/mL (≈ 0.0149 µM) | 0.05 µg/mL (≈ 0.124 µM) | 0.2 µg/mL (≈ 0.497 µM) | 0.39 µg/mL (≈ 0.969 µM) | MIC ([15]; IID803, Staphylococcus aureus IID 803, Gram +, read-out: Minimum inhibitory concentration (MIC)): 0.05 µg/mL (≈ 0.124 µM); MIC ([17]; Staphylococcus aureus FDA 209P JC-1, Gram +): 0.05 µg/mL (≈ 0.124 µM)
2 | CCN1CCN(c2c(F)cc3c(=O)c(C(=O)O)c4scc5n4c3c2N(C)C5)CC1 [Compound (J), 9,1-(Methylimino)methano-7-fluoro-8-(4-ethyl-1-piperazinyl)-5-oxo-5H-thiazolo[3,2-a]quinoline-4-carboxylic acid] | 5.8 mg/kg | no death of mice was observed | 0.1 µg/mL (≈ 0.24 µM) | 0.1 µg/mL (≈ 0.24 µM) | 0.39 µg/mL (≈ 0.936 µM) | 0.39 µg/mL (≈ 0.936 µM) | 6.8 mg/kg | 0.39 µg/mL (≈ 0.936 µM) | 0.05 µg/mL (≈ 0.12 µM) | 0.1 µg/mL (≈ 0.24 µM) | 0.1 µg/mL (≈ 0.24 µM) | low toxicity | 0.78 µg/mL (≈ 1.87 µM) | 0.025 µg/mL (≈ 0.06 µM) | 0.006 µg/mL (≈ 0.0144 µM) | 0.1 µg/mL (≈ 0.24 µM) | 0.39 µg/mL (≈ 0.936 µM) | 0.39 µg/mL (≈ 0.936 µM) | MIC ([15]; Staphylococcus aureus, IID803, read-out: Minimum inhibitory concentration (MIC)): 0.05 µg/mL (≈ 0.12 µM); MIC ([17]; Staphylococcus aureus): 0.05 µg/mL (≈ 0.12 µM)
